Here are results for 3 compounds from patent US20030134901A1, “Lipoxin compounds and their use in treating cell proliferative disorders” (priority 1993, published 2003).

The test system of assay [1] is PLD activity in human PMN. Put plainly: PLD activity (PEt formation) in PMN. In kind it is cell-based. To be noted: PMN; IAP at LXA4 10^−9-10^−10 M, staurosporine (100 nM) at LXA4 10^−7 M. Here is the method: PMN, platelet and RBC isolation from peripheral blood. Human PMN were obtained by the modified Böyum method (Böyum, A. (1968) Scan. J. Clin. Lab. Invest. 21:77) from fresh heparinized blood after venipuncture of healthy normal volunteers. Suspensions in PBS were monitored for cell number and viability by their ability to exclude trypan blue both exceeding 98%. Red blood cells were obtained from 10 ml of heparinized blood after three centrifugations in PBS (2,500 rpm, 10 min at 21° C.). Blood drawn in acidic citrate dextrose (9:1, v/v) was used to isolate platelets as previously described (Serhan, C. N. and Sheppard, K.-A. (1990) J. Clin. Invest. 85:772). PLD activity. Human PMN and HL-60 cells (50×10^6 cells/ml) prepared as above were incubated with ^3H-myristic acid or ^3H-palmitic acid (8 μCi/50×10^6 cells) for 40-60 min at 37° C. in PBS. […] Incubations were carried out at 37° C. (10 ×10^6 cells/ml PBS). […] M. et al. (1989) J. Biol. Chem. 264:17069. At indicated times, incubations were stopped by adding 3.5 ml of ice cold CHCl3/MeOH (2/5, v/v) containing 1-^14C-arachidonic acid (5,000 cpm) used here as internal standard to quantitate extraction recoveries. Samples were extracted using a modified Bligh and Dyer extraction as in (Serhan, C. N. and Sheppard, K. -A. (1990) J. Clin. Invest. 85:772). Organic phases, concentrated in 50 μL of CHCl3/MeOH (8/2, v/v), were spotted onto linear […] TLC plates developed with the organic phase of ethyl acetate[…][…] (110/50/20/100, v/v/v/v) for 50 min ([…]. et al.(1989) J. Biol. Chem. 264:17069). […] Regions corresponding to PA, PEt, and internal standards were scraped and quantified by liquid scintillation counting. […] In these experiments, PA was resolved using ethyl acetate[…][…]) as solvent system ([…]. et al. (1989) Anal. […] Impact of IAP and staurosporine on LXA4-induced PLD activity. PLD activity assays, performed as described (vide supra), were preceded by cell exposure to either IAP or staurosporine. […]

In assay [2] the test system is PLD activity in differentiated HL-60 cells. Put plainly: PLD activity (PEt formation) in differentiated HL-60 cells. The class given is cell-based, human. The following applies: HL-60 cells; IAP (300 ng/ml) at LXA4 10^−9-10^−10 M, staurosporine (100 nM) at LXA4 10^−7 M. The protocol:
Cell cultures and differentiation. HL-60 cells were seeded in RPMI medium supplemented with 100 U/ml penicillin, 100 μg/ml streptomycin, and 10% fetal calf serum (Hyclone, Logan, Utah), incubated at 37° C. with 5% CO2 atmosphere in 250 ml flasks. Individual flasks containing ˜[…] next received dimethyl sulfoxide (DMSO) (1.12% v/v, 120 h) or retinoic acid (RA) (1 μM, 120 h) or phorbol myristate acetate (PMA) (20 nM, 48 h). Before performing binding assays, cells were washed twice in phosphate buffered saline (PBS), Ca^2+- and Mg^2+-free, enumerated and suspended at 20×10^6 cells/ml in Tris buffer (10 mM), pH 7.4 (Fiore, S. et al.(1992) J. Biol. Chem. 267:16168). Nitro blue tetrazolium reduction was performed to monitor induction of polymorphonuclear phenotype as in (Imaizumi, M. and Breitman, T. R. (1986) Blood 67:1273), and cell adherence was determined for induction of macrophage-like phenotype (Collins, S. J. (1987) Blood 70:1273). Human umbilical vein endothelial cells (HUVEC) maintained in culture third passage were obtained from Dr. M. Gimbrone (Brigham and Women's Hospital Department of Pathology).
PLD activity. Human PMN and HL-60 cells (50×10^6 cells/ml) prepared as above were incubated with ^3H-myristic acid or ^3H-palmitic acid (8 μCi/50×10^6 cells) for 40-60 min at 37° C. in PBS. Cell uptake ranged between 60-80% of added label, 7.1±4.2% (n=10; mean ±S.D.) and 32.6±10.3% (n=6; mean ±S.D.) into total phospholipid classes of PMN and HL-60 cells, respectively. Incubations were carried out at 37° C. (10 ×10^6 cells/ml PBS). […] At indicated times, incubations were stopped by adding 3.5 ml of ice cold CHCl3/MeOH (2/5, v/v) containing 1-^14C-arachidonic acid (5,000 cpm) used here as internal standard to quantitate extraction recoveries. […] Regions corresponding to PA, PEt, and internal standards were scraped and quantified by liquid scintillation counting. […] All values reported for PEt formation in Tables 4 and 5 were calculated by subtracting the dpm obtained in the presence of […]. […]

The test system of another assay is human skin fibroblasts. Put plainly: Fibroblast proliferation, MTT assay. The class given is cell-based. To be noted: Homo sapiens, Skin fibroblast; 100 nM, n=3. The source says:
Human type II epithelial A549 cells from human lung carcinoma and normal human skin fibroblast (breast) were obtained from the American Type Culture Collection (Rockville, Md.). The A549 cell line originated from a human alveolar cell carcinoma and was a useful cell line because it was easily assessable and could be maintained in culture without contaminating tissue macrophages. (Lieber, M., et al (1976) A continuous tumor-cell line from a human lung carcinoma with properties of type II alveolar epithelial cells. Int. J Cancer Fibroblasts were utilized within their limited window of viability and their passage numbers were recorded (results are reported for cells from 3-5 passages). Epithelial A549 cells were seeded into T-75 cm^2 tissue culture flasks and maintained in F-12K medium supplemented with 10% heat-inactivated FBS, penicillin (50 U/mL) and streptomycin (50 (g/mL). Human PMN from healthy donors who had not taken ASA or other medications for at least two weeks were obtained by Ficoll-Hypaque gradient centrifugation and dextran sedimentation, (Böyum A. (1968) Isolation of mononuclear cells and granulocytes from human blood. […] Viability of A549 cells and PMN was determined by their ability to exclude trypan blue and were 95±2 and 97±1%, respectively.
A microculture 3,(4,5-dimethylthiazoyl-2-yl) 2,5 (diphenyl-tetrazolium bromide) (MTT) assay, (Marshall, N. J., et al. (1995) A critical assessment of the use of microculture tetrazolium assays to measure cell growth and function. Growth Regul. 5: 69-84.), was used to examine the actions of LXs and other eicosanoids on cell proliferation. A549 cells and fibroblasts from exponential-phase maintenance cultures were counted and dispensed within replicate 96-well culture plates in 100 μl volumes of medium (˜2000 cells/well). […] Dye solution was aspirated, wells were washed once with HBSS and dye taken up by the cells was extracted in 100 μl of isopropyl alcohol:1 N HCl (96:4, v/v) and quantitated at 570 nm using a microplate reader (Molecular Devices, Menlo Park, Calif.). […]
(In general: Formazan colour is commonly taken as a measure of viable cells.)

Another assay concerns A549 cells. Put plainly: A549 cell proliferation, MTT assay. In kind it is cell-based, human. The following applies: Homo sapiens, A549. The protocol: A microculture 3,(4,5-dimethylthiazoyl-2-yl) 2,5 (diphenyl-tetrazolium bromide) (MTT) assay, (Marshall, N. J., et al. (1995) A critical assessment of the use of microculture tetrazolium assays to measure cell growth and function. Growth Regul. 5: 69-84.), was used to examine the actions of LXs and other eicosanoids on cell proliferation. A549 cells and fibroblasts from exponential-phase maintenance cultures were counted and dispensed within replicate 96-well culture plates in 100 μl volumes of medium (˜2000 cells/well). Following 24 hours at 37° C., the culture medium was removed, and fresh medium (100 μl) containing either the compounds (5-1000 nM) or vehicle (medium plus 0.15% ethanol) was added to 4 replicates for each condition studied and the culture plates were then incubated for up to 96 hours at 37° C. in a 5% CO2 atmosphere. At the end of this period, 25 μl of freshly prepared MTT in HBSS (5 mg/ml) was added to the wells and the plates were incubated for 4 hours at 37° C. Dye solution was aspirated, wells were washed once with HBSS and dye taken up by the cells was extracted in 100 μl of isopropyl alcohol:1 N HCl (96:4, v/v) and quantitated at 570 nm using a microplate reader (Molecular Devices, Menlo Park, Calif.). In some experiments, cells were grown in 12-well culture plates, treated as above and enumerated using a Neubauer hemocytometer. Viability was assessed routinely using trypan blue exclusion assay. For the A549 cells and fibroblasts, a linear relation was established for the MTT values and cell number within the range of the experiments shown (r=0.995, P<0.005). A549 cells grown for 72 hours in the presence of the compounds (5-1000 nM) or vehicle (0.15% EtOH) were lysed with 0.25 N NaOH and the cellular protein content was determined by applying the Bio-Rad (Richmond, Calif.) microassay method using bovine serum albumin as standard. The mean cellular protein content in resting A549 cells was 46.6±1.5 pg/cell.

With IAP: Islet activating protein, the “effect on LXA4-mediated PLD activity” value in assay [1] and in assay [2] was “sensitive to IAP treatment” throughout.
A word on the inhibition: it is the drop in the measured response relative to a control, in per cent. Low values mean little suppression, high ones strong suppression. Regarding `C[C@@H]1C[C@H]2[C@@H]3CCC4=CC(=O)C=C[C@]4(C)[C@@]3(F)[C@@H](O)C[C@]2(C)[C@@]1(O)C(=O)CO` [Dexamethasone], the inhibition at 0.1 µM with human skin fibroblasts was 29.7%; in the assay with A549 cells (10^−7 M, 72 hours at 37° C., mean ± SEM, 3 to 7 experiments) it was 42.1 ± 5.4%. For the same compound, the IC50 with A549 cells (MTT assay, 72 hours, read-out: half maximum inhibition (IC50) of A549 cell proliferation) was about 7 nM.
As for `CN[C@@H]1C[C@H]2O[C@@](C)([C@@H]1OC)n1c3ccccc3c3c4c(c5c6ccccc6n2c5c31)C(=O)NC4` [staurosporine], the “effect on LXA4-mediated PLD activity” value in assay [1] and in assay [2] was “inhibited by staurosporine” throughout.
